Where two headings read alike, the source gives them in different places. Each block holds one compound with its values, some of them ahead of it.
Key:
[1] = Solubility in pH 7.4 Hank's Balanced Salt Solution, LC/MS/MS; assay type: physicochemical; settings: pH 7.4 buffer, shaken 2 hours, stood overnight at room temperature
Method: The mixtures were shaken for 2 hours using a benchtop vortexer and left to stand overnight at room temperature. […] After vortexing and standing overnight, the resveratrol gel formulation mixture was centrifuged at 14,000 rpm for 10 minutes. The filtrate or supernatant was sampled twice, consecutively, and diluted 10, 100, and 10.000-fold in a mixture of 50:50 assay buffer:acetonitrile prior to analysis. Both mixtures were assayed by LC/MS/MS using electrospray ionization against the standards prepared in a mixture of 50:50 assay buffer:acetonitrile. Standard concentrations ranged from 1.0 μM down to 3.0 nM.

[2] = Visual clarity of the resveratrol/surfactant mixture on addition to water; assay type: physicochemical; settings: polyoxyl 40 castor oil (macrogoglycerol hydroxystearate) as the surfactant
Method: Water soluble compositions of trans-resveratrol were formulated containing the non-ionic surfactant macrogolglycerol hydroxystearate (polyoxyl 40 castor oil). By heating and stirring this polyoxyl castor oil with a powdered synthetic 99% trans-resveratrol, a clear viscous solution was formed containing dissolved trans-resveratrol (hereinafter referred to as “resveratrol gel formulation”). The resveratrol gel formulation consisted of macrogolglycerol hydroxystearate 40 (50 ml) and powdered trans-resveratrol (3 grams), representing a concentration of 6% for the resveratrol in the surfactant.
The following formulation was prepared as described below: 500 mg of purified resveratrol 99% derived from polygonum cuspidatum (Japanese knotweed) was dissolved in 25 ml of warm macrogoglycerol hydroxystearate until a clear gel was formed. 250 mg of ascorbic acid was added to the clear gel, which was then slowly added to 100 ml of warm water.

[3] = test system: breast cancer (MCF-7) cells; settings: MCF-7 cells in vitro; cited from earlier work
[4] = test system: ovarian cancer (A-2780) cells; settings: A-2780 cells in vitro; cited from earlier work
[5] = cited from earlier work
[6] = humans, up to 4 g; cited from earlier work

solubility ([1]; Hank's Balanced Salt Solution buffer, pH 7.4, aqueous buffer, thermodynamic from solid, average of 2 replicates, read-out: Solubility AVG): 0.5 µM
solubility ([1]; Hank's Balanced Salt Solution buffer, pH 7.4, aqueous buffer, thermodynamic from solid, replicate 1, read-out: Solubility Rep 1): 0.4 µM
solubility ([1]; Hank's Balanced Salt Solution buffer, pH 7.4, aqueous buffer, thermodynamic from solid, replicate 2, read-out: Solubility Rep 2): 0.61 µM
solubility ([1]; average of 2 replicates, read-out: Solubility AVG): 0.505 µM
SMILES: Oc1ccc(/C=C/c2cc(O)cc(O)c2)cc1 [Powdered Resveratrol, trans-3,5,4′-trihydroxystilbene]

Maximum concentration in surfactant for a crystal-clear solution in water [2]: ≤ 20%
SMILES: Oc1ccc(C=Cc2cc(O)cc(O)c2)cc1 [Resveratrol, 3,5,4′-trihydroxystilbene]
Inhibition of proliferation [3]: inhibited the proliferation
Inhibition of proliferation [4]: inhibited the proliferation
Solubility in water [5]: insoluble in water

SMILES: O=c1c(O)c(-c2ccc(O)c(O)c2)oc2cc(O)cc(O)c12 [quercetin]
Detection in plasma after oral administration [6]: No quercetin could be found in plasma
